Source: patent publication US7776858B2, “Methods of treatment of chronic pain using eszopiclone” (Sepracor Inc., priority 2004, dated 2010)

Experiments:
[1] = system: subjects with insomnia related to rheumatoid arthritis; test: Arthritis Self-Efficacy Scale, clinical study of eszopiclone 3 mg vs placebo; assay type: in vivo, human; settings: 3 mg nightly, visit 6 (EOS), ITT
Description: (§1) The study was aimed at observing the effect of eszopiclone 3 mg compared to placebo on daytime function in subjects with insomnia related to rheumatoid arthritis. The study was a multicenter, randomized, double-blind, placebo controlled, parallel group study.
(§2) A total of 153 subjects were randomized. Among them, 77 received 3 mg of eszopiclone (ESZ) nightly (at bedtime) for four weeks and 76 received matching placebo (PBO). […] In addition, subjects had insomnia symptoms including wake time after sleep onset (WASO) of ≧45 minutes, and total sleep time ≦6.5 hours. Diagnosis of rheumatoid arthritis predated the onset of insomnia symptoms.
(§3) During the double blind treatment, subjects were dosed with 3 mg eszopiclone (ESZ) or matching placebo (PBO) nightly (at bedtime) for four weeks. Data was analyzed with one-sided significance tests.

[2] = system: subjects with insomnia related to rheumatoid arthritis; test: Subject Pain Severity Assessment (0 to 10 scale), clinical study of eszopiclone 3 mg vs placebo; assay type: in vivo, human
Description: as §1
as §2, with “(PBO). The discontinuation rates were low, 5.2% in the ESZ group and 9.2% in the PBO group. The patient population was predominantly female (87%) and Caucasian (84%). Mean age was 52, with a range of 27-64.” for “(PBO).”
as §3

conscious dogs = test: Dose escalation safety study, cardiovascular and respiratory parameters after acute intravenous administration; settings: acute intravenous, 3, 5 and 12 mg/kg
Description: To establish the safety of eszopiclone, a dose escalation study was carried out. Cardiovascular and respiratory parameters were evaluated in conscious dogs following acute intravenous administration of (R)-, (S)- or racemic zopiclone at three doses (3, 5 and 12 mg/kg).

mice = test: Antagonism of oxotremorine induced salivation; assay type: in vivo; settings: doses up to 300 mg/kg, p.o.
Description: Eszopiclone was evaluated for antimuscarinic activity in vivo.

[3] = 3 mg nightly, visit 5 (Week 4), ITT, scale 0 to 10

CN1CCN(C(=O)O[C@H]2c3nccnc3C(=O)N2c2ccc(Cl)cn2)CC1 [Eszopiclone, (+) 6-(5-chloropyrid-2-yl)-5-(4-methylpiperazin-1-yl)carbonyloxy-7-oxo-6,7-dihydro-5H-pyrrolo[3-4-b]pyrazine]
Arthritis Self-Efficacy Scale Function, Observed Value, Maximum [1]: 90.0 | Arthritis Self-Efficacy Scale Function, Observed Value, Mean (SD) [1]: 64.1 (20.5) | Arthritis Self-Efficacy Scale Function, Observed Value, Median [1]: 65.0 | Arthritis Self-Efficacy Scale Function, Observed Value, Minimum [1]: 23.0 | Arthritis Self-Efficacy Scale Other Symptoms, Change from Baseline, 25th Percentile [1]: −2.5 | Arthritis Self-Efficacy Scale Other Symptoms, Change from Baseline, 75th Percentile [1]: 10.0 | Arthritis Self-Efficacy Scale Other Symptoms, Change from Baseline, Maximum [1]: 39.0 | Arthritis Self-Efficacy Scale Other Symptoms, Change from Baseline, Mean (SD) [1]: 3.8 (10.7) | Arthritis Self-Efficacy Scale Other Symptoms, Change from Baseline, Median [1]: 3.0 | Arthritis Self-Efficacy Scale Other Symptoms, Change from Baseline, Minimum [1]: −24.0 | Arthritis Self-Efficacy Scale Other Symptoms, Observed Value, 25th Percentile [1]: 31.0 | Arthritis Self-Efficacy Scale Other Symptoms, Observed Value, 75th Percentile [1]: 51.0 | Arthritis Self-Efficacy Scale Other Symptoms, Observed Value, Maximum [1]: 59.0 | Arthritis Self-Efficacy Scale Other Symptoms, Observed Value, Mean (SD) [1]: 40.6 (12.6) | Arthritis Self-Efficacy Scale Other Symptoms, Observed Value, Median [1]: 41.5 | Arthritis Self-Efficacy Scale Other Symptoms, Observed Value, Minimum [1]: 8.0 | Arthritis Self-Efficacy Scale Overall, Change from Baseline, 25th Percentile [1]: −3.0 | Arthritis Self-Efficacy Scale Overall, Change from Baseline, 75th Percentile [1]: 32.0 | Arthritis Self-Efficacy Scale Overall, Change from Baseline, Maximum [1]: 84.0 | Arthritis Self-Efficacy Scale Overall, Change from Baseline, Mean (SD) [1]: 14.0 (30.5) | Arthritis Self-Efficacy Scale Overall, Change from Baseline, Median [1]: 12.5 | Arthritis Self-Efficacy Scale Overall, Change from Baseline, Minimum [1]: −89.0 | Arthritis Self-Efficacy Scale Overall, Observed Value, 25th Percentile [1]: 111.0 | Arthritis Self-Efficacy Scale Overall, Observed Value, 75th Percentile [1]: 163.0 | Arthritis Self-Efficacy Scale Overall, Observed Value, Maximum [1]: 193.0 | Arthritis Self-Efficacy Scale Overall, Observed Value, Mean (SD) [1]: 134.5 (35.9) | Arthritis Self-Efficacy Scale Overall, Observed Value, Median [1]: 133.0 | Arthritis Self-Efficacy Scale Overall, Observed Value, Minimum [1]: 50.0 | Arthritis Self-Efficacy Scale Pain and Other Symptoms, Change from Baseline, 25th Percentile [1]: −5.0 | Arthritis Self-Efficacy Scale Pain and Other Symptoms, Change from Baseline, 75th Percentile [1]: 17.0 | Arthritis Self-Efficacy Scale Pain and Other Symptoms, Change from Baseline, Maximum [1]: 52.7 | Arthritis Self-Efficacy Scale Pain and Other Symptoms, Change from Baseline, Mean (SD) [1]: 7.0 (18.5) | Arthritis Self-Efficacy Scale Pain and Other Symptoms, Change from Baseline, Median [1]: 7.5 | Arthritis Self-Efficacy Scale Pain and Other Symptoms, Change from Baseline, Minimum [1]: −44.0 | Arthritis Self-Efficacy Scale Pain and Other Symptoms, Observed Value, 25th Percentile [1]: 55.0 | Arthritis Self-Efficacy Scale Pain and Other Symptoms, Observed Value, 75th Percentile [1]: 88.0 | Arthritis Self-Efficacy Scale Pain and Other Symptoms, Observed Value, Maximum [1]: 107.0 | Arthritis Self-Efficacy Scale Pain and Other Symptoms, Observed Value, Mean (SD) [1]: 70.0 (21.0) | Arthritis Self-Efficacy Scale Pain and Other Symptoms, Observed Value, Median [1]: 71.0 | Arthritis Self-Efficacy Scale Pain and Other Symptoms, Observed Value, Minimum [1]: 27.0 | Arthritis Self-Efficacy Scale Pain, Change from Baseline, 25th Percentile [1]: −4.0 | Arthritis Self-Efficacy Scale Pain, Change from Baseline, 75th Percentile [1]: 8.0 | Arthritis Self-Efficacy Scale Pain, Change from Baseline, Maximum [1]: 35.0 | Arthritis Self-Efficacy Scale Pain, Change from Baseline, Mean (SD) [1]: 2.7 (10.5) | Arthritis Self-Efficacy Scale Pain, Change from Baseline, Median [1]: 2.0 | Arthritis Self-Efficacy Scale Pain, Change from Baseline, Minimum [1]: −20.0 | Arthritis Self-Efficacy Scale Pain, Observed Value, 25th Percentile [1]: 22.0 | Arthritis Self-Efficacy Scale Pain, Observed Value, 75th Percentile [1]: 37.0 | Arthritis Self-Efficacy Scale Pain, Observed Value, Maximum [1]: 49.0 | Arthritis Self-Efficacy Scale Pain, Observed Value, Mean (SD) [1]: 29.2 (9.8) | Arthritis Self-Efficacy Scale Pain, Observed Value, Median [1]: 30.0 | Arthritis Self-Efficacy Scale Pain, Observed Value, Minimum [1]: 9.0 | Arthritis Self-Efficacy Scale Function, Change from Baseline, Least Squares Means (SE) [2] ([1]; ANCOVA): 6.2 (1.6) | Arthritis Self-Efficacy Scale Other Symptoms, Change from Baseline, Least Squares Means (SE) [2] ([1]; ANCOVA): 3.3 (1.1) | Arthritis Self-Efficacy Scale Overall, Change from Baseline, Least Squares Means (SE) [2] ([1]; ANCOVA): 12.4 (2.9) | Arthritis Self-Efficacy Scale Pain and Other Symptoms, Change from Baseline, Least Squares Means (SE) [2] ([1]; ANCOVA): 6.1 (1.8) | Arthritis Self-Efficacy Scale Pain, Change from Baseline, Least Squares Means (SE) [2] ([1]; ANCOVA): 2.4 (0.9) | effect on change from baseline to the end of study in the Subject Pain Severity Assessment ([2]; 3 mg nightly vs placebo): significant effect | Subject Pain Severity Assessment, Change from Baseline, Least Squares Means (SE) [2] ([2]; 3 mg nightly, visit 5 (Week 4), ITT, ANCOVA): −0.5 (0.2) | Subject Pain Severity Assessment, Change from Baseline, 25th Percentile [2, 3]: −2.0 | Subject Pain Severity Assessment, Change from Baseline, 75th Percentile [2, 3]: 0.5 | Subject Pain Severity Assessment, Change from Baseline, Maximum [2, 3]: 7.0 | Subject Pain Severity Assessment, Change from Baseline, Mean (SD) [2, 3]: −0.5 (2.6) | Subject Pain Severity Assessment, Change from Baseline, Median [2, 3]: −1.0 | Subject Pain Severity Assessment, Change from Baseline, Minimum [2, 3]: −7.0 | Subject Pain Severity Assessment, Observed Value, 25th Percentile [2, 3]: 2.5 | Subject Pain Severity Assessment, Observed Value, 75th Percentile [2, 3]: 7.0 | Subject Pain Severity Assessment, Observed Value, Maximum [2, 3]: 10.0 | Subject Pain Severity Assessment, Observed Value, Mean (SD) [2, 3]: 4.6 (2.7) | Subject Pain Severity Assessment, Observed Value, Median [2, 3]: 5.0 | Subject Pain Severity Assessment, Observed Value, Minimum [2, 3]: 0.0 | Blood gases and blood chemistries (pH, pCO2, pO2, hematocrit, and lactate) (conscious dogs): remained unaffected | cardiotoxicity by electrocardiogram (ECG) (conscious dogs): No evidence of cardiotoxicity | effect on blood pressure (conscious dogs): dose dependent, transient decreases | effect on heart rate (conscious dogs): compensatory increase | antagonism of oxotremorine induced salivation (mice): neither (R)-, (S)-, nor racemic zopiclone significantly antagonized
